Laboratory results reported in article PMC4667779 (Bioorganic & medicinal chemistry, 2014).
Like-named read-outs stand apart in the source and are kept apart here.

Target: Pantothenate synthetase (PanC) from Mtb (Mycobacterium tuberculosis, UniProt P9WIL5)
Assay type: biochemical

Chain of Pantothenate synthetase (PanC) from Mtb (P9WIL5 whole entry, looked up): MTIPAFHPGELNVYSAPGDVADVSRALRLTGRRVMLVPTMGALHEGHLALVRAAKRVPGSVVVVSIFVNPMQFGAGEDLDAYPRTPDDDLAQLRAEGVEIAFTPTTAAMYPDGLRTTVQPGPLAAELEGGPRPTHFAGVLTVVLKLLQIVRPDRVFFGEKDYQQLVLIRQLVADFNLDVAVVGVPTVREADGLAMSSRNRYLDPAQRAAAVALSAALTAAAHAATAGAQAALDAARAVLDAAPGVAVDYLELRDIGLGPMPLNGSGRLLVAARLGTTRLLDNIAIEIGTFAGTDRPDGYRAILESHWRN

CC(C)(C)[C@@H](O)C(=O)NS(=O)(=O)OC[C@H]1O[C@@H](n2cnc3c(N)ncnc32)[C@H](O)[C@@H]1O [1a, 5′-O-[N-((R)-2-Hydroxy-3,3-dimethylbutanoyl)sulfamoyl]adenosine]
modality of inhibition with respect to pantoic acid (double-reciprocal plots, fixed ATP and saturating β-alanine): competitive inhibitor towards pantoic acid

CC(C)(C)[C@@H](O)C(=O)NS(=O)(=O)OC[C@H]1O[C@@H](n2cnc3c(N)ncnc32)[C@@H](O)[C@@H]1O [compound 2, 5′-O-[N-((R)-2-Hydroxy-3,3-dimethylbutanoyl)sulfamoyl]vidarabine]
fold loss in affinity relative to 1a (ratio of Ki values): 4–6 fold

CC(C)(C)[C@@H](O)C(=O)NS(=O)(=O)OC[C@H]1O[C@@H](n2cnc3c(N)ncnc32)[C@H](F)[C@@H]1O [compound 3, 2′-Deoxy-2′-fluoro-5′-O-[N-((R)-2-Hydroxy-3,3-dimethylbutanoyl)sulfamoyl] adenosine]
fold loss in affinity relative to 1a: 2–3 fold

CC(C)(C)[C@@H](O)C(=O)NS(=O)(=O)OC[C@H]1C[C@@H](n2cnc3c(N)ncnc32)[C@H](O)[C@@H]1O [compound 4, 5′-O-[N-((R)-2-Hydroxy-3,3-dimethylbutanoyl)sulfamoyl]aristeromycin]
fold loss in affinity relative to 1a (ratio of Ki values): 2–3 fold

CC(C)(CO)[C@@H](O)CNS(=O)(=O)NC[C@H]1O[C@@H](n2cnc3c(N)ncnc32)[C@H](O)[C@@H]1O [compound 5, 5′-Amino-5′-deoxy-5′-N-[N-((R)-2,2-dimethylbutane-1,3-diol-4-yl)sulfamoyl] adenosine]
fold loss in affinity relative to 1a (ratio of Ki values): approximately 13 fold
